Test results taken from the NIST ThermoML archive (doi:10.1016/j.fluid.2005.04.008).
Numbers after ± are expanded uncertainties.

Assay: xn = mol fraction of the nth substance listed
Details: Liquid

CCCCCCCCCC=CC=CC=CC=CC=CC=CC(=O)OCC [docosahexaenoic acid, ethyl ester] + O=C=O
Details	mass density [kg/m3]
313 K, x2 = 0.5325	912.2 ± 2.6
313 K, x2 = 0.6836	915.9 ± 2
313 K, x2 = 0.7773	919.1 ± 1.7
313 K, x2 = 0.849	920.8 ± 1.5
313 K, x2 = 0.8795	921.3 ± 1.4
313 K, x2 = 0.8972	922.1 ± 1.4
313 K, x2 = 0.9121	923 ± 1.3
313 K, x2 = 0.9222	923.7 ± 1.3
313 K, x2 = 0.9266	923.8 ± 1.3
313 K, x2 = 0.9335	924 ± 1.3
313 K, x2 = 0.9366	923.9 ± 1.3
313 K, x2 = 0.9392	924.1 ± 1.3
313 K, x2 = 0.9443	921.9 ± 1.4
333 K, x2 = 0.5583	894.9 ± 2.5
333 K, x2 = 0.6793	896.5 ± 2.1
333 K, x2 = 0.7551	898.4 ± 1.8
333 K, x2 = 0.7811	899.5 ± 1.8
333 K, x2 = 0.8154	900 ± 1.7
333 K, x2 = 0.8278	900.5 ± 1.6
333 K, x2 = 0.8411	900.7 ± 1.6
333 K, x2 = 0.8612	900.8 ± 1.6
333 K, x2 = 0.8784	901 ± 1.5
333 K, x2 = 0.8918	901.4 ± 1.5
333 K, x2 = 0.9022	901.3 ± 1.5
333 K, x2 = 0.9114	900.5 ± 1.5
333 K, x2 = 0.9221	899 ± 1.6
333 K, x2 = 0.9419	887.6 ± 1.7

CCCCC/C=C\C/C=C\CCCCCCCC(=O)OC [methyl (Z,Z)-9,12-octadecadienate] + O=C=O
Details	mass density [kg/m3]
313 K, x2 = 0.5217	879.7 ± 1.6
313 K, x2 = 0.6288	881.5 ± 1.6
313 K, x2 = 0.7185	884.5 ± 1.6
313 K, x2 = 0.758	888.1 ± 1.6
313 K, x2 = 0.8057	890.6 ± 1.5
313 K, x2 = 0.8337	892.9 ± 1.5
313 K, x2 = 0.8624	895.4 ± 1.5
313 K, x2 = 0.8862	896.8 ± 1.5
313 K, x2 = 0.8984	895.2 ± 1.5
313 K, x2 = 0.9209	892.9 ± 1.5
313 K, x2 = 0.9289	890.5 ± 1.6
313 K, x2 = 0.9388	885.7 ± 1.7
333 K, x2 = 0.6128	868.3 ± 1.7
333 K, x2 = 0.7016	870.8 ± 1.7
333 K, x2 = 0.791	872.8 ± 1.7
333 K, x2 = 0.8255	874.1 ± 1.7
333 K, x2 = 0.852	875 ± 1.7
333 K, x2 = 0.8742	874.1 ± 1.7
333 K, x2 = 0.8981	873.4 ± 1.7
333 K, x2 = 0.9048	872.7 ± 1.7
333 K, x2 = 0.9102	871.7 ± 1.7
333 K, x2 = 0.9156	870.5 ± 1.7
333 K, x2 = 0.9193	870 ± 1.8
333 K, x2 = 0.9264	864.7 ± 1.9
333 K, x2 = 0.934	860.3 ± 2.3
333 K, x2 = 0.9509	838.1 ± 2.6

CCCCCCCC/C=C\CCCCCCCC(=O)OC [methyl cis-9-octadecenoate] + O=C=O
Details	mass density [kg/m3]
313 K, x2 = 0.4876	868.6 ± 1.7
313 K, x2 = 0.5963	874.2 ± 1.7
313 K, x2 = 0.7077	878.5 ± 1.6
313 K, x2 = 0.7931	884.3 ± 1.6
313 K, x2 = 0.833	885.5 ± 1.6
313 K, x2 = 0.8595	887.5 ± 1.5
313 K, x2 = 0.8736	887.5 ± 1.5
313 K, x2 = 0.8891	886.9 ± 1.5
313 K, x2 = 0.9111	886.4 ± 1.6
313 K, x2 = 0.9231	885.1 ± 1.6
313 K, x2 = 0.9312	882.7 ± 1.6
313 K, x2 = 0.9387	881.2 ± 1.6
333 K, x2 = 0.6086	857.1 ± 1.8
333 K, x2 = 0.6969	859.9 ± 1.8
333 K, x2 = 0.7916	862.3 ± 1.7
333 K, x2 = 0.8255	864.4 ± 1.7
333 K, x2 = 0.8509	865.8 ± 1.7
333 K, x2 = 0.8813	867.4 ± 1.7
333 K, x2 = 0.8901	864.5 ± 1.7
333 K, x2 = 0.9072	864.9 ± 1.7
333 K, x2 = 0.9167	863.2 ± 1.7
333 K, x2 = 0.9213	863.1 ± 1.8
333 K, x2 = 0.9282	859.2 ± 1.8
333 K, x2 = 0.9341	858.9 ± 1.9
333 K, x2 = 0.943	851.6 ± 2.1

CCCCCCCCCC=CC=CC=CC=CC=CC(=O)OCC [eicosapentaenoic acid, ethyl ester] + O=C=O
Details	mass density [kg/m3]
313 K, x2 = 0.5962	907.6 ± 1.6
313 K, x2 = 0.6865	911.9 ± 1.5
313 K, x2 = 0.7582	915.2 ± 1.4
313 K, x2 = 0.8265	916.8 ± 1.3
313 K, x2 = 0.8496	916.3 ± 1.3
313 K, x2 = 0.8708	916 ± 1.3
313 K, x2 = 0.8826	916.1 ± 1.3
313 K, x2 = 0.8921	916 ± 1.3
313 K, x2 = 0.9008	915.5 ± 1.3
313 K, x2 = 0.9091	915.2 ± 1.3
313 K, x2 = 0.9184	913.7 ± 1.4
313 K, x2 = 0.9264	912.3 ± 1.4
313 K, x2 = 0.9402	906.6 ± 1.5
333 K, x2 = 0.2842	886.2 ± 2
333 K, x2 = 0.5005	888.6 ± 1.8
333 K, x2 = 0.5996	890.9 ± 1.7
333 K, x2 = 0.6826	892.9 ± 1.6
333 K, x2 = 0.7423	894.3 ± 1.6
333 K, x2 = 0.7876	895.3 ± 1.5
333 K, x2 = 0.8186	895.6 ± 1.5
333 K, x2 = 0.8338	895.5 ± 1.5
333 K, x2 = 0.8541	895.1 ± 1.5
333 K, x2 = 0.8766	894.8 ± 1.5
333 K, x2 = 0.8927	894.1 ± 1.5
333 K, x2 = 0.9043	892.8 ± 1.5
333 K, x2 = 0.916	890.3 ± 1.6
333 K, x2 = 0.9324	879.8 ± 1.8
